Literature values, collected in article PMC5516987, “Safety and pharmacodynamics of dalazatide, a Kv1.3 channel inhibitor, in the treatment of plaque psoriasis: A randomized phase 1b trial” (PLoS ONE, 2017).

Key:
[1] = tested on: viral and bacterial infections; conditions: chronically treated animals, versus vehicle
Excerpt: Dalazatide (previously referred to as ShK-186 and SL5) is a 37-amino acid synthetic peptide that is a specific inhibitor of the voltage-gated Kv1.3 potassium channel. It is a derivative of ShK, which was originally isolated from the venom of the sea anemone Stichodactyla helianthus. Human T cells rely on two potassium channels, Kv1.3 and KCa3.1 to maintain the calcium signaling required for their activation and differentiation, by maintaining a balance between calcium influx and potassium efflux. Chronically activated memory T cells that rely on upregulation of Kv1.3 expression for ...

[2] = 4-AP and related compounds
Excerpt: One potassium channel blocking drug that has been tested in humans is the nonselective potassium channel inhibitor, 4-aminopyridine (4-AP, fampridine, dalfampridine). Various formulations of 4-AP have been evaluated for their potential to increase nerve conduction and improve function in spinal cord injury, autoimmune diseases involving the nervous system, and diseases of nerve conduction. The most commonly reported adverse events are paresthesia (perioral and digital), nausea, dizziness, headache, and insomnia. Although infrequent, the most serious toxicity reported in patients treated ...

Row | SMILES | Clearance of viral and bacterial infections [1] | Crossing of the blood-brain barrier [2]
1 | C[C@@H]1C[C@H]2[C@@H]3CCC4=CC(=O)C=C[C@]4(C)[C@@]3(F)[C@@H](O)C[C@]2(C)[C@@]1(O)C(=O)CO [dexamethasone] | significantly delayed clearance rate | 
2 | Nc1ccncc1 [4-AP, 4-aminopyridine] |  | readily cross the blood-brain barrier
